These results are taken from patent US11491158B2, “N-(substituted-phenyl)-sulfonamide derivatives as kinase inhibitors” (Nerviano Medical Sciences S.R.L., priority 2016, dated 2022).

The assay concerns the target PERK recombinant enzyme (cytoplasmic domain corresponding to residues 540-1115) (Homo sapiens (Human), UniProt Q9NZJ5). The assay is described as follows: PERK enzyme assay, Method 1: ADP-Glo Kinase Assay (quantification of ADP formed). Format: biochemical. As to conditions: 52 microM ATP, 8 nM PERK, 300 microM elF2alpha peptide substrate, 60 minutes. The method, then:
The biochemical activity of compounds was determined by incubation with PERK recombinant enzyme (cytoplasmic domain corresponding to residues 540-1115) and elF2alpha peptide substrate (Aminoacid sequence: LLSELSRRRIRSINK—SEQ ID Nr: 1; purchased from American Peptide Company, product #341923). This was followed by:
Method 1: Quantification of the ADP Formed from the Kinase Reaction by ADP-Glo™ Kinase Assay (Promega Cat. 9102). Utra Pure ATP was Included into ADP-Glo™ Kinase Assay Kit. […]
After 60 minutes, an equal volume (15 microL) of ADP-Glo™ Reagent was added to each well to terminate the kinase reaction and deplete the remaining ATP. After 40 minutes, 30 microL of Kinase Detection Reagent is added, which simultaneously converts ADP to ATP and allows the newly synthesized ATP to be measured using a coupled luciferase/luciferin reaction. After further 40 minutes luminescence was read by ViewLux Instrument (Perkin Elmer). The data are analyzed by GraphPad Prism software which provides sigmoidal fittings of the curves for IC50 determination using a 4 parameter logistic equation: y=bottom+(top−bottom)/(1+10^((log IC50−x)*slope)) where x is the logarithm of the inhibitor concentration, y is the response; y starts at bottom and goes to top with a sigmoid shape. Method 2: Quantification of the Phosphorylated Product Formed from the Kinase Reaction in Presence of ATP (Aldrich, Cat #A2620-9).
Background: ADP-Glo turns the ADP formed in a reaction into a luminescent signal.

Chain of PERK recombinant enzyme (cytoplasmic domain corresponding to residues 540-1115) (Q9NZJ5 540-1115): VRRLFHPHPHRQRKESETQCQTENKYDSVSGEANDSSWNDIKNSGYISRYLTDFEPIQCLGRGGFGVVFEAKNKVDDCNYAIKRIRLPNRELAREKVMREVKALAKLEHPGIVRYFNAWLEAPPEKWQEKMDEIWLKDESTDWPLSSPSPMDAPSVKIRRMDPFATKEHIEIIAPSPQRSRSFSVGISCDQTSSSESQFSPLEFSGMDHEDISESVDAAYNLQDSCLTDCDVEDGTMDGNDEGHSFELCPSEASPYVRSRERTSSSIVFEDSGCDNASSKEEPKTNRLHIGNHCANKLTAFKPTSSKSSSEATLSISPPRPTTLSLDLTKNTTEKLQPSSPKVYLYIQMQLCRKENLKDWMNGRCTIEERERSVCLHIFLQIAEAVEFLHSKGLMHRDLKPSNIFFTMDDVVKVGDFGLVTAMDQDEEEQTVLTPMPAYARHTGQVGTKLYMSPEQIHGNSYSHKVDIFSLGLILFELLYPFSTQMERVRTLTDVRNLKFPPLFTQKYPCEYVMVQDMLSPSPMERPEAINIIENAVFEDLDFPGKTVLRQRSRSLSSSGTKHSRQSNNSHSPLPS

Regarding `COc1ccc(S(=O)(=O)Nc2cccc(-c3csc4ccnc(N)c34)c2F)cc1C` [Cmpd 60, N-[3-(4-Amino-thieno[3,2-c]pyridin-3-yl)-2-fluoro-phenyl]-4-methoxy-3-methyl-benzenesulfonamide], the pIC50 entry is reported as “C (pIC50 < 6.8)”.
